Experimental data as given in PubChem BioAssay AID248 (DTP/NCI, 2004).
Several values for one entry are separate records, joined by “and”; a condition that tells them apart may be missing. Equal entries are not always repeated. Toxic doses and inconclusive results are not listed.

System: L1210 leukemia ip in BDF1 mice, survival T/C
Assay: NCI In Vivo Anticancer Drug Screen. Data for tumor model L1210 Leukemia (intraperitoneal) in B6D2F1 (BDF1) mice
Conditions: higher = longer survival
Method in brief: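 Read-out is survival time, reported as the treated-group measurement over the vehicle-control measurement.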

SMILES: Nc1nc(=S)c2[nH]cnc2[nH]1
- T/C (endpoint: mean survival time, dose: 6.0 mg/kg/injection, schedule: Q01DX Z (ip), vehicle: carboxymethylcellulose (CMC)): 98 % of control
- T/C (endpoint: mean survival time, dose: 7.0 mg/kg/injection, schedule: Q01DX001 (ip), vehicle: saline): 104 % of control and 122 % of control
- T/C (endpoint: mean survival time, dose: 8.0 mg/kg/injection, schedule: Q01DX Z (ip), vehicle: carboxymethylcellulose (CMC)): 106 % of control
- T/C (endpoint: mean survival time, dose: 8.0 mg/kg/injection, schedule: Q04DX008 (ip), vehicle: alkali diluted with saline): 154 % of control
- T/C (endpoint: mean survival time, dose: 8.0 mg/kg/injection, schedule: Q07DX008 (ip), vehicle: alkali diluted with saline): 153 % of control
- T/C (endpoint: mean survival time, dose: 8.3 mg/kg/injection, schedule: Q01DX Z (ip), vehicle: carboxymethylcellulose (CMC)): 94 % of control
- T/C (endpoint: mean survival time, dose: 9.0 mg/kg/injection, schedule: Q01DX Z (ip), vehicle: carboxymethylcellulose (CMC)): 96 % of control
- T/C (endpoint: mean survival time, dose: 10.0 mg/kg/injection, schedule: Q01DX010 (ip), vehicle: other): 115 % of control
- T/C (endpoint: mean survival time, dose: 12.0 mg/kg/injection, schedule: Q04DX004 (ip), vehicle: alkali diluted with saline): 152 % of control
- T/C (endpoint: mean survival time, dose: 12.0 mg/kg/injection, schedule: Q04DX006 (ip), vehicle: alkali diluted with saline): 151 % of control
- T/C (endpoint: mean survival time, dose: 13.0 mg/kg/injection, schedule: Q01DX001 (ip), vehicle: carboxymethylcellulose (CMC)): 152 % of control
- T/C (endpoint: mean survival time, dose: 16.0 mg/kg/injection, schedule: Q01DX Z (sc), vehicle: saline): 106 % of control
- T/C (endpoint: mean survival time, dose: 20.0 mg/kg/injection, schedule: Q01DX001 (ip), vehicle: alkali diluted with saline): 153 % of control
- T/C (endpoint: mean survival time, dose: 20.0 mg/kg/injection, schedule: Q04DX003 (ip), vehicle: alkali diluted with saline): 154 % of control
- T/C (endpoint: mean survival time, dose: 24.0 mg/kg/injection, schedule: Q03DX006 (ip), vehicle: saline): 107 % of control
- T/C (endpoint: mean survival time, dose: 24.0 mg/kg/injection, schedule: Q07DX003 (ip), vehicle: saline): 152 % of control
- T/C (endpoint: mean survival time, dose: 24.0 mg/kg/injection, schedule: Q## X008 (ip), vehicle: alkali diluted with saline): 116 % of control
- T/C (endpoint: mean survival time, dose: 24.0 mg/kg/injection, schedule: Q## X024 (ip), vehicle: alkali diluted with saline): 102 % of control
- T/C (endpoint: mean survival time, dose: 27.0 mg/kg/injection, schedule: Q07DX004 (ip), vehicle: alkali diluted with saline): 153 % of control
- T/C (endpoint: mean survival time, dose: 30.0 mg/kg/injection, schedule: Q04DX003 (ip), vehicle: alkali diluted with saline): 150 % of control
- T/C (endpoint: mean survival time, dose: 36.0 mg/kg/injection, schedule: Q## X016 (ip), vehicle: alkali diluted with saline): 105 % of control
- T/C (endpoint: mean survival time, dose: 36.0 mg/kg/injection, schedule: Q## X024 (ip), vehicle: alkali diluted with saline): 98 % of control
- T/C (endpoint: mean survival time, dose: 40.0 mg/kg/injection, schedule: Q07DX004 (ip), vehicle: alkali diluted with saline): 152 % of control
- T/C (endpoint: mean survival time, dose: 50.0 mg/kg/injection, schedule: Q01DX001 (ip), vehicle: saline): 118 % of control
- T/C (endpoint: mean survival time, dose: 54.0 mg/kg/injection, schedule: Q## X008 (ip), vehicle: alkali diluted with saline): 105 % of control
- T/C (endpoint: mean survival time, dose: 54.0 mg/kg/injection, schedule: Q## X016 (ip), vehicle: alkali diluted with saline): 97 % of control
- T/C (endpoint: mean survival time, dose: 60.0 mg/kg/injection, schedule: Q07DX004 (ip), vehicle: alkali diluted with saline): 152 % of control
- T/C (endpoint: mean survival time, dose: 67.0 mg/kg/injection, schedule: Q01DX001 (ip), vehicle: alkali diluted with saline): 152 % of control
- T/C (endpoint: mean survival time, dose: 80.0 mg/kg/injection, schedule: Q01DX001 (ip), vehicle: alkali diluted with saline): 150 % of control
- T/C (endpoint: mean survival time, dose: 90.0 mg/kg/injection, schedule: Q07DX004 (ip), vehicle: alkali diluted with saline): 120 % of control
- T/C (endpoint: mean survival time, dose: 90.0 mg/kg/injection, schedule: Q07DX006 (ip), vehicle: alkali diluted with saline): 118 % of control
- T/C (endpoint: mean survival time, dose: 96.0 mg/kg/injection, schedule: Q07DX003 (ip), vehicle: saline): 103 % of control
- T/C (endpoint: mean survival time, dose: 100.0 mg/kg/injection, schedule: Q01DX001 (ip), vehicle: alkali diluted with saline): 150 % of control
- T/C (endpoint: mean survival time, dose: 100.0 mg/kg/injection, schedule: Q01DX001 (ip), vehicle: saline): 112 % of control
- T/C (endpoint: mean survival time, dose: 106.0 mg/kg/injection, schedule: Q04DX002 (ip), vehicle: alkali diluted with saline): 98 % of control
- T/C (endpoint: mean survival time, dose: 112.0 mg/kg/injection, schedule: Q01DX001 (ip), vehicle: saline): 98 % of control
- T/C (endpoint: mean survival time, dose: 150.0 mg/kg/injection, schedule: Q01DX001 (ip), vehicle: alkali diluted with saline): 103 % of control
- T/C (endpoint: mean survival time, dose: 448.0 mg/kg/injection, schedule: Q01DX001 (ip), vehicle: saline): 119 % of control
- T/C (endpoint: mean survival time, dose: 16.0 micrograms/kg/injection, schedule: Q01DX015 (ip), vehicle: alkali diluted with saline): 100 % of control
- T/C (endpoint: mean survival time, dose: 32.0 micrograms/kg/injection, schedule: Q01DX015 (ip), vehicle: alkali diluted with saline): 107 % of control
- T/C (endpoint: mean survival time, dose: 63.0 micrograms/kg/injection, schedule: Q01DX015 (ip), vehicle: alkali diluted with saline): 107 % of control
- T/C (endpoint: mean survival time, dose: 125.0 micrograms/kg/injection, schedule: Q01DX015 (ip), vehicle: alkali diluted with saline): 116 % of control
- T/C (endpoint: mean survival time, dose: 196.0 micrograms/kg/injection, schedule: Q01DX Z (ip), vehicle: carboxymethylcellulose (CMC)): 122 % of control
- T/C (endpoint: mean survival time, dose: 250.0 micrograms/kg/injection, schedule: Q01DX015 (ip), vehicle: alkali diluted with saline): 103 % of control
- T/C (endpoint: median survival time, dose: 4.0 mg/kg/injection, schedule: Q01DX009 (ip), vehicle: other): 150 % of control
- T/C (endpoint: median survival time, dose: 16.0 mg/kg/injection, schedule: Q01DX009 (ip), vehicle: other): 116 % of control
